Reference: patent US8329913B2, “Carbazole derivative, solvate thereof, or pharmaceutically acceptable salt thereof” (Zeria Pharmaceutical Co., Ltd., priority 2004, dated 2012)

target: T1, human PPARα (Homo sapiens, UniProt Q07869); assay: Human PPARα agonist assay (luciferase reporter in transfected CV-1 cells); type: cell-based; settings: at 1 μM test compound alone; 100% = 1 μM stimulant (GW7647) only; CV-1 cells expressing human PPARα and RXRα
T1 construct: 1.6 kb of DNA fragment including human PPARα gene was collected from the gel; expressed in transfected cells; host or cells: CV-1 cells, transient transfection with pCI-hPPARa, pCI-hRXRa and the reporter pGL3-PPRE3-TK
T1 sequence (Q07869 1-468): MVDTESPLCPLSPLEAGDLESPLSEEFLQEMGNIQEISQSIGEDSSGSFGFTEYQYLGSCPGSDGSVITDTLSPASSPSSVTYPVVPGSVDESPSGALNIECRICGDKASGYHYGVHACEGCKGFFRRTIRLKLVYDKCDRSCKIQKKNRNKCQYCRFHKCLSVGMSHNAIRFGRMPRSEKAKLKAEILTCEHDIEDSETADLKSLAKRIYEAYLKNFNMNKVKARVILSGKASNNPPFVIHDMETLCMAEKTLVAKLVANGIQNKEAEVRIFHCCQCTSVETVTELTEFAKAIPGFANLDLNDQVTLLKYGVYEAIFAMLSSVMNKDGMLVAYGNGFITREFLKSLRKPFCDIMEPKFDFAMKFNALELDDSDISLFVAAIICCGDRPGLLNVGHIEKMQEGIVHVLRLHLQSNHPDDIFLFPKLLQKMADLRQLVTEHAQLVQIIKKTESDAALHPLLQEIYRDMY
T1 sequence (P19793 1-462 partner): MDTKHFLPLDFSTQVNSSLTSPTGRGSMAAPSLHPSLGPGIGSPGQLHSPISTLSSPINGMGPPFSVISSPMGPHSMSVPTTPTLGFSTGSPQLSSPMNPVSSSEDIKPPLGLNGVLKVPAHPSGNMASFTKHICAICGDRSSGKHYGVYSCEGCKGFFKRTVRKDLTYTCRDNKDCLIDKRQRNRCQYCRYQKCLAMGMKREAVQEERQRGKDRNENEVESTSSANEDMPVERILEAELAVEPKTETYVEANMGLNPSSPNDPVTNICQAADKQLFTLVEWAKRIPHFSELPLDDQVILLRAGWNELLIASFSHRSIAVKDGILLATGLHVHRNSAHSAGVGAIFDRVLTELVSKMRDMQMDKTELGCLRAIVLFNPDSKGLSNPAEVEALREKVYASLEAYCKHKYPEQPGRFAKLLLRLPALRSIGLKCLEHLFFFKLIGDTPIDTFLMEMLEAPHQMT
Protocol: CV-1 cells (96 well plate), where human PPARα and RXRα has expressed in the transient transfection of reporter plasmid (see reference 6a) were washed once with PBS (100 μL/well), and then supplemented with 100 μL/well of DMEM medium including 10% of fetal bovine serum to which test compounds at final concentrations of 10 nM, 30 nM, 100 nM, 300 nM, 1 μM, and 3 μM, as well as GW7647 (not limited to GW7647 shown as an example, but may be any PPARα agonist) at a final concentration of 1 nM as a stimulant were added, and incubated in a 5% CO2 incubator at 37° C. for 24 hours. After removing the medium, the CV-1 cells were washed once with PBS (100 μL/well), and supplemented with 60 μL/well of 1× Passive Lysis Buffer (manufactured by Promega Corporation). The CV-1 cells were incubated at room temperature for 30 minutes, stirred, and then by using Dual-Luciferase Reporter Assay System (manufactured by Promega Corporation), luciferase activities of firefly and renilla were measured using 1420 ARVO Multilabel Counter (manufactured by Wallac Oy). Also, the same experiments as that described above were respectively carried out for the cases where only the above-mentioned stimulant (10 nM, 100 nM, 1 μM) were used, where only the above-mentioned test compounds were used, or where neither was used (nonsupplemented), and luciferase activities of firefly and renilla were measured. Values corrected by dividing the firefly luciferase activities by the renilla luciferase activities were calculated as specific activities and used for evaluations. […]
Also, human PPARα agonist activities of the test compounds were evaluated by using a percentage (activity) where the specific activity when nonsupplemented is regarded as 0% and the specific activity in case only 1 μM stimulant was added is regarded as 100%, from the specific activity in case only the test compound is used.
CV-1 cells were cultured in DMEM medium (manufactured by Invitrogen Corporation) including 10% fetal bovine serum (manufactured by Dainippon Pharmaceutical Co., Ltd.) in 225T-Flask (manufactured by Corning Costar). The cells were detached by 0.5 g/L trypsin-0.2 g/L EDTA (ethylene diamine tetra-acetic acid) (manufactured by Invitrogen Corporation), and then suspended in the DMEM medium including 10% fetal bovine serum to a cell concentration of 2×10^5 cells/mL. Thereafter, the cells were seeded into 96 well plate at 2×10^4 cells/0.1 mL/well, incubated in the CO2 incubator at 37° C. overnight, and then the plasmids prepared by the above-mentioned reference 2a, reference 3a, and reference 4a were transfected into cells by using a lipofectamine reagent (manufactured by Invitrogen Corporation) according to the attached manual.
Namely, after CV-1 cells were cultured overnight, the cells were washed with PBS (100 μL/well). Thereafter the cells were incubated for 5 hours at 37° C./5% CO2 in the MEM medium (manufactured by Invitrogen Corporation) including 430 ng/mL of human PPARα expression plasmid (pCI-hPPARa) prepared by the reference 2a, 430 ng/mL of human RXRα expression plasmid (pCI-hRXRa) prepared by the reference 3a, and 140 ng/mL of the reporter plasmid (pGL3-PPRE3-TK) prepared by the reference 4a, 10 ng/mL of phRL-TK vector (manufactured by Promega Corporation) and 2 μL/mL of lipofectamine.

Row | SMILES | Human PPARα agonist activities, Activity % (at 1 μM) [%]
1 | COc1cc(Cn2c3ccccc3c3c(OCC(C)(C)C(=O)O)cccc32)ccc1OCc1nc(-c2cccs2)oc1C [Example 24, 3-{9-[3-methoxy-4-((5-methyl-2-(thiophene-2-yl)-oxazole-4-yl)methoxy)-benzyl]-9H-carbazole-4-yloxy}-2,2-dimethyl-propionic acid] | 64
2 | COc1cc(Cn2c3ccccc3c3c(OCC(C)(C)C(=O)O)cccc32)ccc1OCc1nc(-c2ccccc2)oc1C [Example 22, 3-{9-[3-methoxy-4-((5-methyl-2-phenyl-oxazole-4-yl)methoxy)-benzyl]-9H-carbazole-4-yloxy}-2,2-dimethyl-propionic acid] | 40
3 | COc1cc(Cn2c3ccccc3c3c(OC(C)C(=O)O)cccc32)ccc1OCc1nc(-c2ccccc2)oc1C (racemic) [Example 4, (±)-2-{9-[3-methoxy-4-((5-methyl-2-phenyl-oxazole-4-yl)methoxy)-benzyl]-9H-carbazole-4-yloxy}propionic acid] | 21
4 | COc1cc(Cn2c3ccccc3c3c(OCCC(C)C(=O)[O-])cccc32)ccc1OCc1nc(-c2ccccc2)oc1C.[Na+] (racemic) [Example 37] | 20
5 | COc1cc(Cn2c3ccccc3c3c(OC(C)(C)C(=O)O)cccc32)ccc1OCc1nc(-c2ccccc2)oc1C [Example 3, 2-{9-[3-methoxy-4-((5-methyl-2-phenyl-oxazole-4-yl)methoxy)-benzyl]-9H-carbazole-4-yloxy}-2-methyl-propionic acid] | 43
6 | COc1cc(Cn2c3ccccc3c3c(OC(C)(C)C(=O)O)cccc32)ccc1OCc1nc(-c2ccncc2)oc1C [Example 9, 2-{9-[3-methoxy-4-((5-methyl-2-(pyridine-4-yl)-oxazole-4-yl)methoxy)-benzyl]-9H-carbazole-4-yloxy}-2-methyl-propionic acid] | 27
7 | COc1cc(Cn2c3ccccc3c3c(OC(C)C(=O)[O-])cccc32)ccc1OCc1nc(-c2ccccc2)oc1C.[Na+] (racemic) [Example 30] | 35
8 | CC[C@H](Oc1cccc2c1c1ccccc1n2Cc1ccc(OCc2nc(-c3ccccc3)oc2C)c(OC)c1)C(=O)[O-].[Na+] [Example 38, sodium (S)-(+)-2-{9-[3-methoxy-4-((5-methyl-2-phenyl-oxazole-4-yl)methoxy)-benzyl]-9H-carbazole-4-yloxy}butyrate] | 32
9 | COc1cc(Cn2c3ccccc3c3c(OC(C)(C)C(=O)O)cccc32)ccc1OCc1nc(-c2ccccc2)sc1C [Example 15, 2-{9-[3-methoxy-4-((5-methyl-2-phenyl-thiazole-4-yl)methoxy)-benzyl]-9H-carbazole-4-yloxy}-2-methyl-propionic acid] | 73
10 | COc1cc(Cn2c3ccccc3c3c(OC(C)(C)C(=O)[O-])cccc32)ccc1OCc1nc(-c2cccs2)oc1C.[Na+] [Example 32] | 66
11 | CCC(Oc1cccc2c1c1ccccc1n2Cc1ccc(OCc2nc(-c3ccccc3)oc2C)c(OC)c1)C(=O)[O-].[Na+] (centres unmarked) [Example 31] | 21
12 | CCC(Oc1cccc2c1c1ccccc1n2Cc1ccc(OCc2nc(-c3ccccc3)oc2C)c(OC)c1)C(=O)O (racemic) [Example 5, (±)-2-{9-[3-methoxy-4-((5-methyl-2-phenyl-oxazole-4-yl)methoxy)-benzyl]-9H-carbazole-4-yloxy}butyric acid] | 27
13 | COc1cc(Cn2c3ccccc3c3c(OC(C)(C)C(=O)[O-])cccc32)ccc1OCc1nc(-c2ccccc2)oc1C.[Na+] [Example 28, sodium 2-{9-[3-methoxy-4-((5-methyl-2-phenyl-oxazole-4-yl)methoxy)-benzyl]-9H-carbazole-4-yloxy}-2-methyl-propionate] | 56
14 | COc1cc(Cn2c3ccccc3c3c(OCC(C)(C)C(=O)O)cccc32)ccc1OCc1nc(-c2ccco2)oc1C [Example 23, 3-{9-[4-((2-(furan-2-yl)-5-methyl-oxazole-4-yl)methoxy)-3-methoxy-benzyl]-9H-carbazole-4-yloxy}-2,2-dimethyl-propionic acid] | 69
15 | Cc1oc(-c2ccccc2)nc1COc1ccc(Cn2c3ccccc3c3c(OC(C)(C)C(=O)O)cccc32)cc1 [Example 13, 2-methyl-2-{9-[4-((5-methyl-2-phenyl-oxazole-4-yl)methoxy)-benzyl]-9H-carbazole-4-yloxy}propionic acid] | 37
16 | COc1cc(Cn2c3ccccc3c3c(OC(C)(C)C(=O)O)cccc32)ccc1OCc1nc(-c2cccs2)oc1C [Example 8, 2-{9-[3-methoxy-4-((5-methyl-2-(thiophene-2-yl)-oxazole-4-yl)methoxy)-benzyl]-9H-carbazole-4-yloxy}-2-methyl-propionic acid] | 60
17 | COc1cc(Cn2c3ccccc3c3c(OCC(C)(C)C(=O)[O-])cccc32)ccc1OCc1nc(-c2ccccc2)oc1C.[Na+] [Example 34] | 41
18 | COc1cc(Cn2c3ccccc3c3c(OCC(C)(C)C(=O)O)cccc32)ccc1OCc1nc(-c2ccncc2)oc1C [Example 25, 3-{9-[3-methoxy-4-((5-methyl-2-pyridine-4-yl-oxazole-4-yl)methoxy)-benzyl]-9H-carbazole-4-yloxy}-2,2-dimethyl-propionic acid] | 47
19 | COc1cc(Cn2c3ccccc3c3c(OC(C)(C)C(=O)O)cccc32)ccc1OCc1sc(-c2ccccc2)nc1C [Example 16, 2-{9-[3-methoxy-4-((4-methyl-2-phenyl-thiazole-5-yl)methoxy)-benzyl]-9H-carbazole-4-yloxy}-2-methyl-propionic acid] | 56
20 | COc1cc(Cn2c3ccccc3c3c(OC(C)(C)C(=O)O)cccc32)ccc1OCc1nc(-c2ccco2)oc1C [Example 7, 2-{9-[4-((2-(furan-2-yl)-5-methyl-oxazole-4-yl)methoxy)-3-methoxy-benzyl]-9H-carbazole-4-yloxy-}2-methyl-propionic acid] | 39
